According to US20070099900A1, “Methods of modulating neurotrophin-mediated activity” (PainCeptor Pharma Corporation, priority 2005, published 2007):

Assays:
PC12 (TrkA & p75) = experiment: 125I-NGF binding displacement in PC12 cells; design: species or system rat; conditions: for NGF binding displacement, dose-response curve: PC12 cells expressing TrkA and p75
Experimental: The method for acquiring the PC12 data described in Table 1 is described herein in Example 1. Each experiment was done at least once with an n value of 4 for each data point. (n/a=not acquired)
All cells were incubated at 37° C. in 5% CO2. PC12 cells were maintained in RPMI-1640 medium supplemented with 10% fetal bovine serum (FBS). A875 human melanoma cells were maintained in DMEM with 10% FBS. HEK 293 cells were stably transfected with human TrkA plasmid (see below) and maintained in DMEM with 10% FBS and G418 (600 μg/mL) for selection.
NGF binding was evaluated using methods familiar to those who are skilled in the art. Briefly, cells expressing one or both NGF receptors (PC12: TrkA+p75; A875: p75 alone; HEK_TrkA: TrkA alone) were harvested by replacing the medium with calcium-magnesium free balanced salt (Grey's) solution and incubating at 37° C. for 15 min. For NGF binding, cells were resuspended at a concentration of 2×10^6 cells/mL in HEPES-Krebs-Ringer (HKR) buffer (10 mM HEPES; 125 mM NaCl; 4.8 mM KCl; 1.3 mM CaCl2; 1.2 mM MgSO4; 1.2 mM KH2PO4; 1 mg/ml BSA; 1 mg/ml glucose; pH 7.4) and exposed to ^125I-NGF (˜0.1 nM) in the presence or absence of varying concentrations of the compound. Non-specific binding was determined for reference by incubating ^125I-NGF with an excess of non-radioactive NGF in the abence of compound. Following a two-hour incubation period at 4° C., ^125I-NGF bound to the cells was quantified in a gamma radiation counter following separation from unbound NGF by filtration or centrifugation through glycerol (10% in HKR). Inhibition of binding was calculated as a percent of the specific binding (calculated as the differential between ^125I-NGF binding in the absence and presence of an excess of non-radioactive NGF without compound). Dose-response inhibition curves were typically generated with seven concentrations of a given compound, with three replicates for each concentration. For most compounds, multiple dose-response curves were generated.
The IC50 data shown in Table 1 were acquired using the procedure described herein using PC12 cells.

[1] = Writhing Test (acetic acid abdominal contraction test); type: in vivo; conditions: mice
Experimental: The acetic acid abdominal contraction test (Martinez et al., Pain 1999; 81: 179) was used to determine the efficacy of different compounds in a model of acute visceral chemical nociception. […] Compound or vehicle was administered (i.p. or s.c.) 15-45 minutes prior to the acetic acid injection. Each episode of writhing is characterized by a lengthwise stretching of the torso with a concomitant arching of the back.
Statistical analysis was performed using Prism™ 4.01 software package (GraphPad, San Diego, Calif., USA). The difference in response levels between treatment groups and control vehicle group was analyzed using an ANOVA followed by Bonferroni's method for post-hoc pair-wise comparisons. A p value <0.05 was considered to be significant
Animals were treated with vehicle (VEH) or Compound 91 (5 mg/kg i.p.; [CMP 1] and 50 mg/kg i.p. [CMP 2])) 10-20 minutes before the intraperitoneal injection of acetic acid, as described in this example.

[2] = system: NGF-induced Erk 1/2 phosphorylation in PC12 cells; experiment: NGF-induced Erk 1/2 phosphorylation, Western blot; type: cell-based, rat; conditions: NGF 5 ng/mL
Experimental: This assay is useful for establishing that the compounds of the invention are functional NGF antagonists, not receptor agonists (an agonist could conceivably block NGF binding but actually activate the receptor). Erk 1/2 is a kinase activated down stream of TrkA and is a well studied member of the NGF-induced signal transduction cascade.
PC12 cells expressing TrkA and p75 were acutely exposed to 5 ng/mL NGF (15 min; 37° C.; 5% CO2) that was pre-incubated (30 min; room temperature) with or without the compounds. Cells were lysed in Laemmli sample buffer (for SDS-PAGE) or a lysis buffer containing Triton X-100 (for ELISA). Following SDS-PAGE, proteins were electroblotted onto nitrocellulose and immunoprobed for phosphorylated Erk 1 and 2. Blocking and primary antibody incubations of immunoblots were performed in Tris-buffered saline-Tween (10 mM Tris, pH 8.0, 150 mM NaCl, and 0.2% Tween 20) supplemented with 5% (w/v) bovine serum albumin (BSA); secondary antibody incubations were performed in 5% (w/v) dried skim milk powder. Immunoreactive bands were detected by chemiluminescence.

Q: For `O=C(O)c1ccc(Cl)c(N2C(=O)c3ccc4c5c(ccc(c35)C2=O)C(=O)N(c2cc(C(=O)O)ccc2Cl)C4=O)c1` [Compound 18, 3-[7-(1-chloro-4-carboxy-phenyl)-1,3,6,8-tetraoxo-3,6,7,8-tetrahydro-1H-benzo[lmn][3,8]phenanthrolin-2-yl]-4-chloro-benzoic acid], which “NGF binding displacement, dose-response curve” value (PC12 (TrkA & p75)) is on record?
A: Its value is “effectively blocks NGF binding”.

Q: And the “PC12 (TrkA & p75) Single point (% max binding) Mean” value (from here on “PC12 … (% max binding) Mean”) (PC12 (TrkA & p75); compound concentration 50 μM)?
A: The value was “*** (0 > *** > 30)”.

Q: For `COC(=O)c1ccc2nc3c4ccc5c6c(ccc(c(=O)n3c2c1)c64)C(=O)N(c1cc(C(=O)O)ccc1Cl)C5=O` [Compound 102, Methyl-2-(5-Carboxy-2-chloro-phenyl)-1,3,6-trioxo-1,2,3,6-tetrahydro-benzo[lmn]benzo[4,5]imidazo[2,1-b][3,8]phenanthroline-9-carboxylic acid ester], which “PC12 … (% max binding) Mean” value (PC12 (TrkA & p75); compound concentration 10 μM) is on record?
A: Its value is “* (* > 50)”.

Q: With `O=C(O)c1ccc(Cl)c(N2C(=O)c3ccc4c(=O)n5c6cc(Cl)ccc6nc5c5ccc(c3c45)C2=O)c1` [Compound 99, 2-(5-Carboxy-2-chloro-phenyl)-1,3,6-trioxo-1,2,3,6-tetrahydro-9-chloro-benzo[lmn]benzo[4,5]imidazo[2,1-b][3,8]phenanthroline] as the compound, how does the “PC12 … (% max binding) Mean” value (PC12 (TrkA & p75); compound concentration 10 μM) read?
A: Its value is “*** (0 > *** > 30)”.

Q: For `COc1ccc2nc3c4ccc5c6c(ccc(c(=O)n3c2c1)c64)C(=O)N(c1cc(C(=O)O)ccc1Cl)C5=O` [Compound 101, 2-(5-Carboxy-2-chloro-phenyl)-1,3,6-trioxo-1,2,3,6-tetrahydro-9-methoxy-benzo[lmn]benzo[4,5]imidazo[2,1-b][3,8]phenanthroline], which “PC12 … (% max binding) Mean” value (PC12 (TrkA & p75); compound concentration 10 μM) is on record?
A: The value was “** (30 > ** > 50)”.

Q: For `O=C(O)CCCN1C(=O)c2ccc3c4c(ccc(c24)C1=O)C(=O)OC3=O` [Compound 94], which “PC12 … (% max binding) Mean” value (PC12 (TrkA & p75); compound concentration 25 μM) is on record?
A: The value was “*** (0 > *** > 30)”.

Q: Which “PC12 … (% max binding) Mean” value (PC12 (TrkA & p75); compound concentration 50 μM) does the source give for `O=C1c2ccc3c4c(ccc(c24)C(=O)N1c1ccc(S(=O)(=O)O)cc1)C(=O)N(c1ccc(S(=O)(=O)O)cc1)C3=O` [Compound 54, 4-(1,3,6,8-Tetraoxo-7-(4-benzenesulfonic acid)-3,6,7,8-tetrahydro-1H-benzo[lmn][3,8]phenanthrolin-2-yl)-benzenesulfonic acid] here?
A: The value was “*** (0 > *** > 30)”.

Q: Which “PC12 … (% max binding) Mean” value (PC12 (TrkA & p75); compound concentration 25 μM) does the source give for `O=C(O)c1ccc(Cl)c(N2C(=O)c3ccc4c(=O)n5c6ccccc6nc5c5ccc(c3c45)C2=O)c1` [Compound 98, 2-(5-Carboxy-2-chloro-phenyl)-1,3,6-trioxo-1,2,3,6-tetrahydro-benzo[lmn]benzo[4,5]imidazo[2,1-b][3,8]phenanthroline-9] here?
A: Its value is “*** (0 > *** > 30)”.

Q: For `O=c1c2ccc3c4c(ccc(c24)c2nc4ccccc4n12)c(=O)n1c2ccccc2nc31.[K+]` [Compound 92, 1,3,6-trioxo-1,2,3,6-tetrahydro-benzo[lmn]benzo[4,5]imidazo[2,1-b][3,8]diphenanthroline potassium salt], which “PC12 … (% max binding) Mean” value (PC12 (TrkA & p75); compound concentration 50 μM) is on record?
A: The value was “* (* > 50)”.

Q: Which “PC12 … (% max binding) Mean” value (PC12 (TrkA & p75); compound concentration 25 μM) does the source give for `O=C(O)CCCN1C(=O)c2ccc3c(=O)n4c5cc(C(=O)O)ccc5nc4c4ccc(c2c34)C1=O` [Compound 95, 2-(3-Carboxy-propyl)-1,3,6-trioxo-1,2,3,6-tetrahydro-benzo[lmn]benzo[4,5]imidazo[2,1-b][3,8]phenanthroline-9-carboxylic acid] here?
A: Its value is “* (* > 50)”.

Q: Which results are given for `O=C([O-])c1ccc2nc3c4ccc5c6c(ccc(c(=O)n3c2c1)c46)c(=O)n1c2cc(C(=O)[O-])ccc2nc51.[Na+].[Na+]` [Compound 91]?
A: NGF binding displacement, dose-response curve (PC12 (TrkA & p75)): effectively blocks NGF binding; Antinociceptive effect in the Writhing Test ([1]; 5 and 50 mg/kg i.p., p<0.01 vs vehicle): significant antinociceptive effects; Chemically-induced abdominal contractions (number in 30 minutes) ([1]; i.p., n=6, vehicle 58±4, dose of the value (5 or 50 mg/kg) not stated): 16±9; Inhibition of NGF-induced Erk 1/2 phosphorylation [2]: inhibits NGF-induced Erk 1/2 phosphorylation

Q: With `O=C(O)CCCN1C(=O)c2ccc3c4c(ccc(c24)C1=O)C(=O)N(c1cc(C(=O)O)ccc1Cl)C3=O` [Compound 59, 3-[7-(3-Carboxy-propyl)-1,3,6,8-tetraoxo-3,6,7,8-tetrahydro-1H-benzo[lmn][3,8]phenanthrolin-2-yl]-4-chloro-benzoic acid] as the compound, how does the “PC12 … (% max binding) Mean” value (PC12 (TrkA & p75); compound concentration 50 μM) read?
A: The value was “*** (0 > *** > 30)”.

Q: With `O=C(O)c1ccc(Cl)c(N2C(=O)c3ccc4c5c(ccc(c35)C2=O)C(=O)OC4=O)c1` [Compound 58, 4-Chloro-3-(1,3,6,8-tetraoxo-1,3,6,8-tetrahydro-2-oxa-7-aza-pyren-7-yl)-benzoic acid] as the compound, how does the “PC12 … (% max binding) Mean” value (PC12 (TrkA & p75); compound concentration 50 μM) read?
A: Its value is “*** (0 > *** > 30)”.

Q: Which “PC12 … (% max binding) Mean” value (PC12 (TrkA & p75); compound concentration 50 μM) does the source give for `O=C(O)c1cccc(N2C(=O)c3ccc4c(=O)n5c6cc(C(=O)O)ccc6nc5c5ccc(c3c45)C2=O)c1` [Compound 93, 2-(3-Carboxy-phenyl)-1,3,6-trioxo-1,2,3,6-tetrahydro-benzo[lmn]benzo[4,5]imidazo[2,1-b][3,8]phenanthroline-9-carboxylic acid] here?
A: Its value is “** (30 > ** > 50)”.

Q: For `O=C(O)c1ccc(Cl)c(N2C(=O)c3ccc4c(=O)n5c6cc([N+](=O)[O-])ccc6nc5c5ccc(c3c45)C2=O)c1` [Compound 100, 2-(5-Carboxy-2-chloro-phenyl)-1,3,6-trioxo-1,2,3,6-tetrahydro-9-nitro-benzo[lmn]benzo[4,5]imidazo[2,1-b][3,8]phenanthroline], which “PC12 … (% max binding) Mean” value (PC12 (TrkA & p75); compound concentration 10 μM) is on record?
A: Its value is “*** (0 > *** > 30)”.
